Data on 25 molecules can be found in patent US11384060B2, “Amide compounds and use thereof” (ALPHALA CO., LTD., priority 2017, dated 2022).

One assay concerns the target T1, glucagon receptor (GCGR) (Homo sapiens, UniProt P47871).
T1 construct: expressed in transfected cells; host or cells: CHO-K1 cells overexpressing GCGR (membrane fractions)
Kind of assay: I125-glucagon binding assay (competition, GCGR membrane fractions). The gist of the method:
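Membranes from CHO-K1 cells overexpressing GCGR, 7.5 μg/well in 50 mM Tris pH 7.4 with 0.5% BSA, were preincubated 5 min with serially diluted compounds, then given 0.0625 nM final I^125-glucagon for 30 min at 25° C. Bound label was filtered on PEI-coated GF/B and counted; IC50 by non-linear regression.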

Assay [1] deals with T2, glucagon receptor (GCGR) overexpressed CHO-K1 cells or human primary hepatocytes (Homo sapiens, UniProt P47871).
T2 construct: expressed in transfected cells; host or cells: GCGR overexpressed CHO-K1 cells or human primary hepatocytes (endogenous receptor)
T2 sequence (P47871 26-477): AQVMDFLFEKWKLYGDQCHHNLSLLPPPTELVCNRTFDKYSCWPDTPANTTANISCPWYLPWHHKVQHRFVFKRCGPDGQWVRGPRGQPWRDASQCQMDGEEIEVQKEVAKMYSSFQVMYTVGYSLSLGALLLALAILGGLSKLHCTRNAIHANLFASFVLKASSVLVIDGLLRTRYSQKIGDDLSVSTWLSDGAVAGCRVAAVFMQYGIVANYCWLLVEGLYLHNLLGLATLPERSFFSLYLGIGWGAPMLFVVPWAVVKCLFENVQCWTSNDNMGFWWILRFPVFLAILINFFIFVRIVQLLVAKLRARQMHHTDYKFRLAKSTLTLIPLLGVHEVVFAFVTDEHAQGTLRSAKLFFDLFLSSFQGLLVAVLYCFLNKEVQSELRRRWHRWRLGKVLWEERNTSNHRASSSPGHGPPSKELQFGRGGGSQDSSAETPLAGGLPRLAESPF
Kind of assay: Glucagon cAMP inhibition assay (Cisbio cAMP Dynamic 2 HTRF). It counts as cell-based. The gist of the method:
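GCGR-overexpressing CHO-K1 cells or human primary hepatocytes in HBSS with 0.1% BSA and 800 nM IBMX, pre-incubated 30 min with serially diluted compounds (1% DMSO final), then stimulated 30 min at room temperature with glucagon at its EC50. cAMP measured by HTRF after 60 min lysis; IC50 by non-linear regression.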

The mark [2] stands for this setting: competition with I125-glucagon 0.0625 nM, membrane fractions of GCGR overexpressed CHO-K1 cells.
The mark [3] stands for this setting: inhibition of glucagon (EC50 concentration) induced cAMP production.

pIC50: −log10 of the molar value. Read-outs that look alike come from different tables or passages of the source. Some results are limits rather than exact numbers.

T1 sequence (P47871 26-477): as above

For `CCCC[C@@H](COc1ccc(-c2ccc(Cl)cc2Cl)cc1)Nc1ccc(C(=O)NCc2nnn[nH]2)cc1` [Compound 1-18, (S)—N-((1H-tetrazol-5-yl)methyl)-4-((1-((2′,4′-dichloro-[1,1′-biphenyl]-4-yl)oxy)hexan-2-yl)amino)benzamide], the pIC50 at glucagon receptor (GCGR) (setting [2]) was 7.51. Further, the “IC50 cAMP” value in assay [1] (setting [3]) is listed as 1564 nM.

As for `O=C(O)CCNC(=O)c1ccc(NC(COc2ccc(-c3cc4ccccc4o3)cc2)c2ccccc2)cc1` (centres unmarked) [Compound 1-23, 3-(4-((2-(4-(benzofuran-2-yl)phenoxy)-1-phenylethyl)amino)benzamido) propanoic Acid], the pIC50 on glucagon receptor (GCGR) (setting [2]) was 6.83. The “IC50 cAMP” value in assay [1] (setting [3]) amounted to 39.8 nM.

`CCOC(=O)CCNC(=O)c1ccc(N[C@H](Cc2ccccc2)C(=O)Nc2ccc(C(F)(F)F)cc2)cc1` [Compound 24-3, Ethyl (R)-3-(4-((1-oxo-3-phenyl-1-((4-(trifluoromethyl)phenyl)amino)propan-2-yl)amino)benzamido)propanoate]: the IC50 on glucagon receptor (GCGR) (uM) was over 10 µM. The “IC50 cAMP” value in assay [1] came to 208 nM.

Consider `CCOC(=O)CCNC(=O)c1ccc(N[C@@H](COc2ccc(-c3nc4ccccc4o3)cc2)C(C)C)cc1` [Compound 1-53], for which the pIC50 at glucagon receptor (GCGR) (setting [2]) is 4.61. Further, the “IC50 cAMP” value in assay [1] (setting [3]) came out at 90 nM.

Molecule `CC(C)[C@@H](COc1ccc(-c2ccc(C(F)(F)F)cc2F)nc1)Nc1ccc(C(=O)NCCC(=O)O)cc1` [Compound 10-3, (S)-3-(4-((1-((6-(2-fluoro-4-(trifluoromethyl)phenyl)pyridin-3-yl)oxy)-3-methylbutan-2-yl)amino)benzamido)propanoic Acid] had a pIC50 at glucagon receptor (GCGR) (setting [2]) of 6.29. Moreover, the “IC50 cAMP” value in assay [1] (setting [3]) is listed as 1206 nM.

Take `CC[C@H](C)[C@@H](COc1ccc(-c2ccc(Cl)cc2Cl)cc1)Nc1cnc(C(=O)NCCC(=O)O)cn1` [Compound 9-2, 3-(5-(((2S,3 S)-1-((2′,4′-dichloro-[1,1′-biphenyl]-4-yl)oxy)-3-methylpentan-2-yl)amino)pyrazine-2-carboxamido)propanoic Acid]: the pIC50 at glucagon receptor (GCGR) (setting [2]) is 6.44. Besides, the “IC50 cAMP” value in assay [1] (setting [3]) stood at 427 nM.

Consider `CCOC(=O)CCNC(=O)c1ccc(N[C@@H](COc2ccc(-c3nc4ccccc4s3)cc2)C(C)C)cc1` [Compound 1-51, Ethyl (R)-3-(4-((1-(4-(benzo[d]thiazol-2-yl)phenoxy)-3-methylbutan-2-yl)amino)benzamido)propanoate], for which the IC50 at glucagon receptor (GCGR) (cell prints its own unit uM under a nM head) is over 30 µM. Also, in assay [1] (setting [3]), the “IC50 cAMP” value worked out at 197 nM.

Take `CCN(c1ccc(C(=O)NCCC(=O)O)cc1)[C@H](COc1ccc(-c2cc3ccccc3o2)cc1)C(C)C` [Compound 6-2, (S)-3-(4-((1-(4-(benzofuran-2-yl)phenoxy)-3-methylbutan-2-yl)(ethyl)amino)benzamido)propanoic Acid]: the pIC50 on glucagon receptor (GCGR) (setting [2]) is 6.19. Besides, the “IC50 cAMP” value in assay [1] (setting [3]) turned out to be 164.3 nM.

`COc1cc(OC[C@@H](Nc2ccc(C(=O)NCCC(=O)O)cc2)C(C)C)ccc1-c1cc2ccccc2o1` [Compound 13-5, (S)-3-(4-((1-(4-(benzofuran-2-yl)-3-methoxyphenoxy)-3-methylbutan-2-yl)amino)benzamido)propanoic Acid] showed a pIC50 at glucagon receptor (GCGR) (setting [2]) of 6.95. The “IC50 cAMP” value in assay [1] (setting [3]) was found to be 112 nM.

`CCOC(=O)CCNC(=O)c1ccc(N[C@H](C(=O)Nc2ccc3cc(OC)ccc3c2)[C@@H](C)CC)cc1` [Compound 24-7, Ethyl 3-(4-(((2S,3S)-1-((6-methoxynaphthalen-2-yl)amino)-3-methyl-1-oxopentan-2-yl)amino)benzamido)propanoate]: the pIC50 at glucagon receptor (GCGR) was 4.94. Further, in assay [1], the “IC50 cAMP” value is 217 nM.

The molecule `CC(C)[C@@H](COc1ccc(-c2ccc(Cl)cc2Cl)cn1)Nc1ccc(C(=O)NCCC(=O)O)cc1` [Compound 15-17, (S)-3-(4-((1-((5-(2,4-dichlorophenyl)pyridin-2-yl)oxy)-3-methylbutan-2-yl)amino)benzamido)propanoic Acid] had a pIC50 at glucagon receptor (GCGR) of 6.67. In assay [1], the “IC50 cAMP” value came out at 196 nM.

For the molecule `CC[C@H](C)[C@@H](COc1ccc(-c2cc3ccccc3o2)c(Cl)c1)Nc1ccc(C(=O)NCc2nnn[nH]2)cc1` [Compound 3-1, N-((1H-tetrazol-5-yl)methyl)-4-(((2S,3S)-1-(4-(benzofuran-2-yl)-3-chlorophenoxy)-3-methylpentan-2-yl)amino)benzamide], the pIC50 at glucagon receptor (GCGR) (setting [2]) is 6.66. Moreover, in assay [1] (setting [3]), the “IC50 cAMP” value is recorded as 1822 nM.

On glucagon receptor (GCGR) (setting [2]), `CCCC[C@@H](COc1ccc(-c2ccc(Cl)cc2Cl)nc1)Nc1ccc(C(=O)NCCC(=O)O)cc1` [Compound 10-7, (S)-3-(4-((1-((6-(2,4-dichlorophenyl)pyridin-3-yl)oxy)hexan-2-yl)amino)benzamido)propanoic Acid] had a pIC50 of 6.50. Moreover, the “IC50 cAMP” value in assay [1] (setting [3]) was 732 nM.

As for `CC[C@H](C)[C@@H](COc1ccc(-c2ccc(OC(F)(F)F)cc2)cc1)Nc1ccc(C(=O)NCCC(=O)O)cc1` [Compound 1-6, 3-(4-(((2S,3S)-3-methyl-1-((4′-(trifluoromethoxy)-[1,1′-biphenyl]-4-yl)oxy)pentan-2-yl)amino)benzamido)propanoic Acid], the pIC50 on glucagon receptor (GCGR) (setting [2]) is 6.64. Besides, the “IC50 cAMP” value in assay [1] (setting [3]) is listed as 1078 nM.

At glucagon receptor (GCGR) (setting [2]), `CCCC[C@@H](COc1ccc(-c2nnc(-c3ccccc3)o2)cc1)Nc1ccc(C(=O)NCCC(=O)O)cc1` [Compound 1-50, (S)-3-(4-((1-(4-(5-phenyl-1,3,4-oxadiazol-2-yl)phenoxy)hexan-2-yl)amino)benzamido)propanoic Acid] gave a pIC50 of 6.15. Besides, in assay [1] (setting [3]), the “IC50 cAMP” value is given as 1622 nM.

At glucagon receptor (GCGR) (setting [2]), `CC(C)C[C@@H](COc1cc(F)c(-c2ccc(C(F)(F)F)cc2)c(F)c1)Nc1ccc(C(=O)NCCC(=O)O)cc1` [Compound 7-6, (S)-3-(4-((1-((2,6-difluoro-4′-(trifluoromethyl)-[1,1′-biphenyl]-4-yl)oxy)-4-methylpentan-2-yl)amino)benzamido)propanoic Acid] gave a pIC50 of 6.84. Further, the “IC50 cAMP” value in assay [1] (setting [3]) is reported as 371 nM.

Regarding `CCCC[C@@H](COc1ccc(-c2ccc(C(F)(F)F)cc2Cl)c(Cl)c1)Nc1ccc(C(=O)NCCC(=O)O)cc1` [Compound 3-8, (S)-3-(4-((1-((2,2′-dichloro-4′-(trifluoromethyl)-[1,1′-biphenyl]-4-yl)oxy)hexan-2-yl)amino)benzamido)propanoic Acid], on glucagon receptor (GCGR) (setting [2]), the pIC50 is 7.59. In assay [1] (setting [3]), the “IC50 cAMP” value is 35 nM.

Take `CCOC(=O)CCNC(=O)c1ccc(N[C@H](CC(C)C)C(=O)Nc2ccc(C(F)(F)F)cc2)cc1` [Compound 24-9, Ethyl (R)-3-(4-((4-methyl-1-oxo-1-((4-(trifluoromethyl)phenyl)amino)pentan-2-yl)amino)benzamido)propanoate]: the IC50 at glucagon receptor (GCGR) (uM) is over 10 µM. For the same molecule, the “IC50 cAMP” value in assay [1] is given as 1059 nM.

The molecule `CC(C)[C@@H](COc1ccc(-c2ccc(C(F)(F)F)cc2)cn1)Nc1ccc(C(=O)NC[C@@H](O)C(=O)O)cc1` [Compound 15-8, (R)-2-hydroxy-3-(4-(((S)-3-methyl-1-((5-(4-(trifluoromethyl)phenyl)pyridin-2-yl)oxy)butan-2-yl)amino)benzamido)propanoic Acid] had a pIC50 at glucagon receptor (GCGR) of 5.48. In assay [1], the “IC50 cAMP” value is over 30000 nM.

`Cc1nc(OC[C@H](CC(C)C)Nc2ccc(C(=O)NCCC(=O)O)cc2)ccc1-c1ccc(C(F)(F)F)cc1Cl` [Compound 18-7, (S)-3-(4-((1-((5-(2-chloro-4-(trifluoromethyl)phenyl)-6-methylpyridin-2-)oxy)-4-methylpentan-2-yl)amino)benzamido)propanoic Acid] gave a pIC50 on glucagon receptor (GCGR) of 7.13. The “IC50 cAMP” value in assay [1] stood at 80 nM.

For the molecule `CC(C)[C@@H](COc1nnc(-c2ccc(C(C)(C)C)cc2)o1)Nc1ccc(C(=O)NCCC(=O)O)cc1` [Compound 22-16, (S)-3-(4-((1-((5-(4-(tert-butyl)phenyl)-1,3,4-oxadiazol-2-yl)oxy)-3-methylbutan-2-yl)amino)benzamido)propanoic Acid], the pIC50 on glucagon receptor (GCGR) is under 4.52. In assay [1], the “IC50 cAMP” value is given as over 30000 nM.

Regarding `CC(C)C[C@@H](Nc1ccc(C(=O)NCCC(=O)O)cc1)C(=O)Nc1ccc(C(F)(F)F)cc1` [Compound 24-10, (R)-3-(4-((4-methyl-1-oxo-1-((4-(trifluoromethyl)phenyl)amino)pentan-2-yl)amino)benzamido)propanoic Acid], on glucagon receptor (GCGR), the pIC50 was 5.24. In addition, in assay [1], the “IC50 cAMP” value stood at 30780 nM.

With `CC(C)[C@@H](COc1ccc(-c2ccc(Cl)cc2Cl)nc1)Nc1ccc(C(=O)NCCC(=O)O)cc1` [Compound 10-4, (S)-3-(4-((1-((6-(2,4-dichlorophenyl)pyridin-3-yl)oxy)-3-methylbutan-2-yl)amino)benzamido)propanoic Acid], the pIC50 on glucagon receptor (GCGR) (setting [2]) was 6.35. Besides, the “IC50 cAMP” value in assay [1] (setting [3]) turned out to be 4036 nM.

In turn, `COc1cc(OC[C@@H](Nc2ccc(C(=O)NCCC(=O)O)cc2)C(C)C)ccc1-c1ccc(C(F)(F)F)cc1Cl` [Compound 13-6, (S)-3-(4-((1-((2′-chloro-2-methoxy-4′-(trifluoromethyl)-[1,1′-biphenyl]-4-yl)oxy)-3-methylbutan-2-yl)amino)benzamido)propanoic Acid] had a pIC50 at glucagon receptor (GCGR) (setting [2]) of 7.05. Also, the “IC50 cAMP” value in assay [1] (setting [3]) turned out to be 97 nM.

At glucagon receptor (GCGR) (setting [2]), `CC[C@H](C)[C@@H](COc1ccc(-c2cc3ccccc3o2)nc1)Nc1ccc(C(=O)NCCC(=O)O)cc1` [Compound 10-13, 3-(4-(((2S,3S)-1-((6-(benzofuran-2-yl)pyridin-3-yl)oxy)-3-methylpentan-2-yl)amino)benzamido)propanoic Acid] showed a pIC50 of 6.65. Further, in assay [1] (setting [3]), the “IC50 cAMP” value stood at 863.9 nM.
